From ChEMBL document CHEMBL1153321, “Approaches to the simultaneous inactivation of metallo- and serine-beta-lactamases” (Bioorg Med Chem Lett, 2009)

Legend:
[1] = target: Beta-lactamase TEM (Enterobacter cloacae) (UniProt Q6W9J1); assay: Ratio of Kcat to Km of Enterobacter cloacae beta-lactamase TEM-1
[2] = test system: Enterobacter cloacae; assay: Ratio of Kcat to Km of Enterobacter cloacae beta-lactamase OXA-1
[3] = test system: Enterobacter cloacae; assay: Activity of Enterobacter cloacae beta-lactamase OXA-1

Beta-lactamase TEM (Enterobacter cloacae), sequence (Q6W9J1 as listed by the source): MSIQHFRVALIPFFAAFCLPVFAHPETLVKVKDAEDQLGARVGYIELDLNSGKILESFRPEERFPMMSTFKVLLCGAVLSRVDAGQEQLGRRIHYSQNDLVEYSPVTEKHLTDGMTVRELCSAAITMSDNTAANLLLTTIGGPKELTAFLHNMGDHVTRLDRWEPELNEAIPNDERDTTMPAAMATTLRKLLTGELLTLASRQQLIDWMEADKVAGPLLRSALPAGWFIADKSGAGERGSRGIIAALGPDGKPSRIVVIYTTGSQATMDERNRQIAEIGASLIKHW

SMILES	Ratio [1]	Ratio [2]	Km [3]	kcat [3]
CC1=C(C(=O)O)N2C(=O)/C(=N/O)[C@H]2S(=O)(=O)C1	40 s⁻¹ M⁻¹			
CC(=O)OCC1=C(C(=O)O)N2C(=O)[C@@H](N(O)C(=O)Cc3ccccc3)[C@H]2SC1	2620 s⁻¹ M⁻¹	2020 s⁻¹ M⁻¹	60 µM	0.121 s⁻¹
CC(=O)OCC1=C(C(=O)O)N2C(=O)/C(=N/O)[C@H]2SC1	158 s⁻¹ M⁻¹	88 s⁻¹ M⁻¹	> 400 µM	
CC(=O)OCC1=C(C(=O)O)N2C(=O)[C@@H](NO)[C@H]2SC1	2620 s⁻¹ M⁻¹	66 s⁻¹ M⁻¹	> 400 µM	
CC(=O)OCC1=C(C(=O)O)N2C(=O)[C@@H](N(O)C=O)[C@H]2SC1	25 s⁻¹ M⁻¹	75 s⁻¹ M⁻¹	> 400 µM	
CC(=O)OCC1=C(C(=O)O)N2C(=O)/C(=N/O)[C@H]2S(=O)(=O)C1	1690 s⁻¹ M⁻¹	990 s⁻¹ M⁻¹	> 400 µM	
CC(=O)OCC1=C(C(=O)O)N2C(=O)[C@@H](NC(=O)Cc3cccs3)[C@H]2SC1	4.85 ×10⁵ /s/M	8.51 ×10⁴ /s/M	13.9 µM	1.81 s⁻¹
CC(=O)OCC1=C(C(=O)O)N2C(=O)[C@@H](NC=O)[C@H]2SC1	6 ×10⁴ /s/M	3160 s⁻¹ M⁻¹	323 µM	1.02 s⁻¹
